For data set [1], the system named is tubulin. The experiment in a line: Tubulin polymerization in vitro assay. Conditions: result not shown. In kind it is biochemical.
Data set [2] has as its system caspase-3, α-tubulin, β-tubulin, VEGF in AY-27 cells. The experiment in a line: Western blotting in cultured AY-27 cells. In kind it is cell-based, rat. Conditions: NAC-AITC 7.5 and 15 μM, 24 h. On the procedure: FIG. 8. Inhibition of bladder cancer development by MSP-1. Female F344 rats were inoculated with AY-27 cells intravesically via a urethra catheter to initiate development of orthotopic bladder cancer. Oral administration of MSP-1 of vehicle (water) once daily was started 1 day after cancer cell inoculation and ended 3 weeks later. The number of rats per group varied from 11-29. A. Initial (□) and final (▪) body weights. B. Tumor weight was calculated by subtracting the average normal bladder weight from tumor-bearing bladder weight. *P<0.05. Each value in A and B is mean±SEM. C. Percentage of bladder where the tumor invaded the muscle tissue. D. The effects of MSP-1 on selected anticancer targets in UM-UC-3 cells (in vitro), AY-27 cells (in vitro) and AY-27 tumors (in vivo). The cells were treated with MSP-1 at the sinigrin concentrations of 13 and 26 microM for 24 h. The bladder tumors were removed from rats treated with MSP-1 at the sinigrin doses of 9 or 90 micromols/kg once daily for 3 weeks, started 1 day after cancer cell inoculation. Cell lysates and tumor homogenates were analyzed by Western blotting, using GAPDH as a loading control.
FIG. 13. Molecular targets of NAC-AITC in bladder cancer. AY-27 cells in culture were treated with NAC-AITC for 24 h. The results are representative of at least two experiments. The bladder tumors were removed from rats, which were treated with NAC-AITC orally at 10 μmol/kg once daily for 3 weeks, starting 1 day after intravesicular inoculation of AY-27 cells. The results are representative of three to five tumors assayed in each group. Cell lysates and tumor tissue homogenates were analyzed by western blot analysis, using GAPDH as a loading control.
Western blot analysis. Cells after harvest were washed with ice-cold phosphate-buffered saline, suspended in radioimmunoprecipitation assay lysis buffer supplemented with a protease inhibitor cocktail (Sigma-Aldrich) and further lysed by sonication. […]

Data set [3] in a line: Dissociation of NAC-AITC in phosphate buffer (HPLC). It is filed as physicochemical. Conditions: pH 7.4, 37° C. On the procedure:
FIG. 11. Dissociation of NAC-AITC. NAC-AITC at 100 μM was freshly prepared in 20 mM sodium phosphate buffer (pH 7.4) containing 1% DMSO and incubated at 37° C. for 0, 0.5, 1, 2, 3, 4, 5 and 24 h. At each time point, an aliquot of the solution was analyzed for remaining NAC-AITC by HPLC. Each value is a mean±SD (n=3).
Measurement of dissociation of NAC-AITC. The assay was based on a known protocol. Briefly, a solution of NAC-AITC was prepared as rapidly as possible by dilution of 0.2 ml of 5 mM NAC-AITC freshly prepared in 20 mM sodium phosphate buffer (pH 7.4): DMSO (1:1) with 20 mM sodium phosphate buffer (pH 7.4) to 10 ml, resulting in a 0.1 mM NAC-AITC solution in 1% DMSO. An aliquot (0.05 ml) was immediately analyzed by HPLC; the remainder of the solution was incubated at 37° C. on a shaker, and an aliquot (0.05 ml) was analyzed by HPLC at different time points up to 24 h. The HPLC condition was the same as used in the urine analysis described above. A plot of the conjugate peak area remaining versus time was generated to determine the half-time of decomposition.

In the case of `C=CCN=C=S` [AITC, allyl isothiocyanate], the “rate of tubulin polymerization” value in data set [1] is “no effect”.

As for `C=CCNC(=S)SC[C@H](NC(C)=O)C(=O)O` [NAC-AITC, N-acetyl-S—(N-allylthiocarbamoyl)cysteine], in data set [2], the VEGF level result was “downregulation”; the caspase-3 cleavage/activation result is given as “dose-dependent cleavage/activation”; the “α-tubulin and β-tubulin levels” value is “downregulation”. Besides, the half-time of dissociation in data set [3] was ~12 h.
